From patent publication US9187471B2, “Pyrido [4,3-b] indole and pyrido [3,4-b] indole derivatives and methods of use” (Medivation Technologies, Inc., priority 2010, dated 2015)

How the values were obtained:
[1] = biological target: T1, rat adrenergic α1A receptor (Rattus norvegicus, UniProt P43140); experiment: Adrenergic α1A radioligand binding ([3H]Prazosin); conditions: read-out: Adrenergic (0.1 μM) a1A, percent inhibition of specific binding; compound at 0.1 μM; 0.25 nM [3H]Prazosin
T1 construct: rat adrenergic α1A receptor obtained from Wistar Rat submaxillary glands; from tissue; host or cells: Wistar rat submaxillary glands
T1 sequence (P43140 1-466): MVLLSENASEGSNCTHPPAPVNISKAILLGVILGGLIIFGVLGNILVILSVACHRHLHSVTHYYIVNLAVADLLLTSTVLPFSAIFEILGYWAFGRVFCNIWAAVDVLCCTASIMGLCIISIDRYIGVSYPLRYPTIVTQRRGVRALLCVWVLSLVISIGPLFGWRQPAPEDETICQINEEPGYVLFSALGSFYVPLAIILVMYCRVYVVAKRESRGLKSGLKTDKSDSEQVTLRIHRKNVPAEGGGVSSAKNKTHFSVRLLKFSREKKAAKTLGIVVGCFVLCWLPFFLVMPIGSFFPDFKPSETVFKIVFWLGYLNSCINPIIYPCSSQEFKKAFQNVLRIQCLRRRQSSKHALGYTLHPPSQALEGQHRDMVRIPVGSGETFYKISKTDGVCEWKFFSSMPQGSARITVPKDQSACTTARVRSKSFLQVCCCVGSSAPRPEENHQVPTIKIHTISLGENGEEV
Method: To evaluate in radioligand binding assays the activity of compounds of the invention, rat adrenergic α1A receptor obtained from Wistar Rat submaxillary glands (Michel, A. et al, Br. J. Pharmacol. 98:883, 1989) in a modified Tris-HCl buffer (50 mM Tris-HCl buffer, pH 7.4, 0.5 mM EDTA) was used. Compounds of the invention were incubated with 0.25 nM [^3H]Prazosin for 60 min at 25° C. Non-specific binding was estimated in the presence of 10 μM phentolamine Receptor proteins were filtered and washed, the filters were then counted to determine [^3H]Prazosin specifically bound. […] Compounds of the invention were tested in this biochemical assay and percent inhibition of specific binding was determined.

[2] = biological target: T2, human recombinant adrenergic α2C receptor (Homo sapiens, UniProt P18825); experiment: Adrenergic α2C radioligand binding ([3H]MK-912); conditions: read-out: Adrenergic (0.1 μM) a2C, percent inhibition of specific binding; compound at 0.1 μM; 1 nM [3H]MK-912
T2 construct: expressed in transfected cells; host or cells: insect Sf9 cells
T2 sequence (P18825 1-462): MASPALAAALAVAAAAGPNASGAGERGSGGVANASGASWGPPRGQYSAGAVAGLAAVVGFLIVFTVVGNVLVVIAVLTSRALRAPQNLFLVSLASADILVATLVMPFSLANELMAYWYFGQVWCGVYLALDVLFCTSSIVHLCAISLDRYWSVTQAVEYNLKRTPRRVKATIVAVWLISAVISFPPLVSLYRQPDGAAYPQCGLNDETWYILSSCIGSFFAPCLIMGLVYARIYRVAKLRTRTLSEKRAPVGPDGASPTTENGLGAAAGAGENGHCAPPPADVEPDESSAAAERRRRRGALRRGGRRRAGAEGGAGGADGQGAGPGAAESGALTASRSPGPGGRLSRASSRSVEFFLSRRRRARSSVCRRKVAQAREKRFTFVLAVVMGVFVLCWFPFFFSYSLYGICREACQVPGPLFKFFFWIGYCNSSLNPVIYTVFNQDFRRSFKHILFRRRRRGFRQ
Method: To evaluate in radioligand binding assays the activity of compounds of the invention, human recombinant adrenergic α2C receptor expressed in insect Sf9 cells (Uhlen, S. et al, J. Pharmacol. Exp. Ther. 271:1558, 1994) in a modified Tris-HCl buffer (50 mM Tris-HCl, pH 7.4, 12.5 mM MgCl2, 2 mM EDTA) was used. Compounds of the invention were incubated with 1 nM [^3H]MK-912 for 60 min at 25° C. Non-specific binding was estimated in the presence of 10 μM WB-4101. Receptor proteins were filtered and washed, the filters were then counted to determine [^3H]MK-912 specifically bound. […] Compounds of the invention were tested in this biochemical assay and percent inhibition of specific binding was determined.

[3] = biological target: T3, human recombinant serotonin (5-Hydroxytryptamine) 5-HT6 receptor (Homo sapiens, UniProt P50406); experiment: Serotonin 5-HT6 radioligand binding ([3H]LSD); conditions: compound at 0.1 μM; read-out: Inhibition of ligand binding, Serotonin 5-HT6 (percent inhibition of specific binding)
T3 construct: expressed in transfected cells; host or cells: HeLa
Description: Receptor proteins were filtered and washed, the filters were then counted to determine [3H]LSD specifically bound.

[4] = biological target: T4, human recombinant serotonin (5-Hydroxytryptamine) 5-HT5A receptor (Homo sapiens, UniProt P47898); experiment: Serotonin 5-HT5A radioligand binding ([3H]LSD); conditions: compound at 0.1 μM; read-out: Inhibition of ligand binding, Serotonin 5-HT5A (percent inhibition of specific binding)
T4 construct: expressed in transfected cells; host or cells: CHO-K1
Method: Compounds of the invention were incubated with 1.7 nM [^3H]Lysergic acid diethylamide (LSD) for 60 min at 37° C. […] Receptor proteins were filtered and washed, the filters were counted to determine [^3H]LSD specifically bound.

[5] = biological target: T5, human recombinant histamine H1 receptor (Homo sapiens, UniProt P35367); experiment: Histamine H1 radioligand binding ([3H]Pyrilamine); conditions: read-out: Histamine H1 Binding (1 μM), percent inhibition of specific binding; compound at 1 μM; 1.2 nM [3H]Pyrilamine
T5 construct: expressed in transfected cells; host or cells: CHO-K1
In short: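 Human recombinant H1 receptor expressed in CHO-K1 cells, in 50 mM Tris-HCl pH 7.4 with 2 mM MgCl2, 100 mM NaCl, 250 mM sucrose. Non-specific binding defined with 1 μM pyrilamine; bound [3H]pyrilamine counted after filtration and washing. Values are percent inhibition of specific binding.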

T3 sequence (P50406 whole entry): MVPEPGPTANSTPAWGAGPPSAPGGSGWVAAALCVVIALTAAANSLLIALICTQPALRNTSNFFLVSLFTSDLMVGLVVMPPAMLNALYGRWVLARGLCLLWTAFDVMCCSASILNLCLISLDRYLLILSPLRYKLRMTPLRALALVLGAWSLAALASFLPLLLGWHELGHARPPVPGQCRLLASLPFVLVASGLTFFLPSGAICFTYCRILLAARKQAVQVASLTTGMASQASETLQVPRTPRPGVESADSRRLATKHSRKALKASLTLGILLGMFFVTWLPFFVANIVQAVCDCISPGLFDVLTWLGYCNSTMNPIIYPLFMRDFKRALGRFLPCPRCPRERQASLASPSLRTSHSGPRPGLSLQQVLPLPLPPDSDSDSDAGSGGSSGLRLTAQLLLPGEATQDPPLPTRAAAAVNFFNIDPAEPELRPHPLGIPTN
T4 sequence (P47898 whole entry): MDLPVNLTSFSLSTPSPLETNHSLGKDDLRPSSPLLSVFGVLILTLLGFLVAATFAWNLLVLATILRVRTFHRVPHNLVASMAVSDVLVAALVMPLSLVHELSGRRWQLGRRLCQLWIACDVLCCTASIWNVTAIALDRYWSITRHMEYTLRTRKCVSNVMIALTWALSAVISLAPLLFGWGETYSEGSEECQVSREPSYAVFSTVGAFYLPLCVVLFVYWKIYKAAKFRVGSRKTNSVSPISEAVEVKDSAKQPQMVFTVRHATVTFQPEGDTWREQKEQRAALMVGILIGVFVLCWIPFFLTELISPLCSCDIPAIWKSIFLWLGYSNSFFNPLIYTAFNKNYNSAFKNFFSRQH
T5 sequence (P35367 whole entry): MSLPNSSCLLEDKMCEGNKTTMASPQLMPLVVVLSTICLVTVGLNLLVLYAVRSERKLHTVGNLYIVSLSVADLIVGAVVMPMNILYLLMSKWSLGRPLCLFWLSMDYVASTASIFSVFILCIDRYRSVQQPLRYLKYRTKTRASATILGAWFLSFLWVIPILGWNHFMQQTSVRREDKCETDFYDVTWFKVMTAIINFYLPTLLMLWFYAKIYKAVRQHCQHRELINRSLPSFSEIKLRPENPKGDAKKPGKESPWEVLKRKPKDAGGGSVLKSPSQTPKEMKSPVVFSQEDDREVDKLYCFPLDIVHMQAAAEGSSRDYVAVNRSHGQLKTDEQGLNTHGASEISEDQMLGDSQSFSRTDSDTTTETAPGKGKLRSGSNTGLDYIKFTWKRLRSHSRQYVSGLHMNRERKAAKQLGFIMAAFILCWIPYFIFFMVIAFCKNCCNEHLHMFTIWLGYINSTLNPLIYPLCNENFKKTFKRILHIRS

Row | SMILES | inhibition at 0.1 µM [1] | inhibition at 0.1 µM [2] | inhibition at 0.1 µM [3] | inhibition at 0.1 µM [4] | inhibition at 1 µM [5]
1 | Cc1ccc2c(c1)c1c(n2-c2ccc(-c3cncc4ccccc34)cn2)CCN(C)C1 [Compound No. 135, 5-(5-(isoquinolin-4-yl)pyridin-2-yl)-2,8-dimethyl-2,3,4,5-tetrahydro-1H-pyrido[4,3-b]indole] | 36% | 13% | 6% | 77% | 10%
2 | Cc1ccc2c(c1)c1c(n2-c2ccccc2-c2ccc(C)nc2)CCN(C)C1 [Compound 59, 2,8-dimethyl-5-(2-(6-methylpyridin-3-yl)phenyl)-2,3,4,5-tetrahydro-1H-pyrido[4,3-b]indole] | 42% | 25% | 17% | 31% | 27%
3 | Cc1csc(-c2cccc(-n3c4c(c5cc(C)ccc53)CN(C)CC4)c2)c1 [Compound No. 63, 2,8-dimethyl-5-(3-(4-methylthiophen-2-yl)phenyl)-2,3,4,5-tetrahydro-1H-pyrido[4,3-b]indole] | -8% | 10% | 5% | 25% | 31%
4 | Cc1ccc2c(c1)c1c(n2-c2ccc(-c3ccc(C)nc3)cn2)CCN(C)C1 [Compound No. 156, 2,8-dimethyl-5-(6′-methyl-3,3′-bipyridin-6-yl)-2,3,4,5-tetrahydro-1H-pyrido[4,3-b]indole] | 39% | -13% | -5% | 41% | 12%
5 | Cc1ccc2c(c1)c1c(n2-c2ccccc2-c2ccc(F)nc2)CCN(C)C1 [Compound No. 84, 5-(2-(6-fluoropyridin-3-yl)phenyl)-2,8-dimethyl-2,3,4,5-tetrahydro-1H-pyrido[4,3-b]indole] | 61% | 23% | 20% | 29% | 26%
6 | Cc1ccc2c(c1)c1c(n2-c2cscc2-c2ccnn2C)CCN(C)C1 [Compound No. 150] | 36% | 10% | 14% | 65% | 22%
7 | Cc1ccc2c(c1)c1c(n2-c2ccc3c(c2)CCN(C=O)C3)CCN(C)C1 [Compound No. 77, 6-(2,8-dimethyl-1,2,3,4-tetrahydro-pyrido[4,3-b]indol-5-yl)-3,4-dihydro-1H-isoquinoline-2-carbaldehyde] | 20% | 0% | 5% | 21% | 35%
8 | COc1ccc(-c2cscc2-n2c3c(c4cc(C)ccc42)CN(C)CC3)cc1 [Compound 37] | 82% | 72% | 24% | 94% | 6%
9 | Cc1ccc2c(c1)c1c(n2-c2cscc2C(=O)N(C)C)CCN(C)C1 [Compound No. 152] | 6% | 12% | 22% | 14% | 16%
10 | Cc1ccc2c(c1)c1c(n2-c2ccc(-c3c(C)noc3C)cn2)CCN(C)C1 [Compound No. 137, 4-(6-(2,8-dimethyl-3,4-dihydro-1H-pyrido[4,3-b]indol-5(2H)-yl)pyridin-3-yl)-3,5-dimethylisoxazole] | 17% | -1% | 2% | 31% | 3%
11 | CC(=O)Nc1ccc(-c2ccc(-n3c4c(c5cc(C)ccc53)CN(C)CC4)nc2)cn1 [Compound No. 139, N-(6′-(2,8-dimethyl-3,4-dihydro-1H-pyrido[4,3-b]indol-5(2H)-yl)-3,3′-bipyridin-6-yl)acetamide] | 22% | 2% | -1% | -4% | 4%
12 | Cc1ccc2c(c1)c1c(n2-c2cccc(-c3ccc4c(ccn4C)c3)c2)CCN(C)C1 [Compound 53, 2,8-dimethyl-5-(3-(1-methyl-1H-indol-5-yl)phenyl)-2,3,4,5-tetrahydro-1H-pyrido[4,3-b]indole] | -11% | 7% | 11% | 11% | 18%
13 | Cc1ccc2c(c1)c1c(n2-c2cscc2-c2cncc3ccccc23)CCN(C)C1 [Compound 34] | 4% | 5% | 11% | 56% | 6%
14 | Cc1ccc2c(c1)c1c(n2-c2cccc(-c3cn[nH]c3)c2)CCN(C)C1 [Compound No. 70, 5-(3-(1H-pyrazol-4-yl)phenyl)-2,8-dimethyl-2,3,4,5-tetrahydro-1H-pyrido[4,3-b]indole] | 5% | 8% | 0% | 43% | 8%
15 | CNC(=O)c1ccc(-c2ccccc2-n2c3c(c4cc(C)ccc42)CN(C)CC3)cc1 [Compound No. 72, 2′-(2,8-dimethyl-3,4-dihydro-1H-pyrido[4,3-b]indol-5(2H)-yl)-N-methylbiphenyl-4-carboxamide] | 36% | 1% | 3% | 14% | 18%
16 | Cc1cc(C)c2c(c1)c1c(n2-c2ccc3ncccc3c2)CCN(C)C1 [Compound 48] | -6% | -7% | 20% | 10% | 4%
17 | Cc1ccc2c(c1)c1c(n2-c2ccccc2-c2cnc(N(C)C)nc2)CCN(C)C1 [Compound 31] | 51% | 12% | 20% | 8% | 3%
18 | Cc1ccc2c(c1)c1c(n2-c2ccccc2-c2ccc(C)s2)CCN(C)C1 [Compound No. 81, 2,8-dimethyl-5-(2-(5-methylthiophen-2-yl)phenyl)-2,3,4,5-tetrahydro-1H-pyrido[4,3-b]indole] | 34% | 41% | 44% | 69% | 57%
